We go through three compounds from ChEMBL document CHEMBL3886713, “Aromatic heterocyclic derivative having TRPV4-inhibiting activity” (2016).

The target of this assay is Transient receptor potential cation channel subfamily V member 4 (Homo sapiens, UniProt Q9HBA0). Nature of the assay: Inhibition Assay: Test Example 1: (1) The TRPV4 inhibitory activity was measured using CHO-K1 cells stably expressing human TRPV4 (hTRPV4/CHO cells). (2) In the day before the experimental day, frozen cell were thawed and washed with the culture medium (MEM-α, 10% FBS, 2 mmol/L GlutaMax, 50 unit Penicillin, 50 μg/mL Streptomycin). Then cells were suspended in the culture medium. (3) The 384-well plates which hTRPV4/CHO cells were seeded at densities of 4000 cells/well in the culture medium and cultured in a CO2 incubator in the presence of 5% CO2 at 37° C. for overnight was used as assay plates. (4) The assay plate was washed with assay buffer (Hanks, 20 mmol/L HEPES, 2.5 mmol/L probenecid, pH7.4), and the buffer were remained at 20 μL/well. (5) 10 μl of dye loading buffer (9 μmol/L Fluo 4-AM, 0.09% Pluronic F-127/assay buffer) was added to each well, then the assay plate was incubated in a CO2 incubator in the presence of 5% CO2 at 37° C. for one hour. (final 3 μmol/L Fluo4-AM). (6) The assay plate was washed with the assay buffer, and the buffers were remained at 20 μL/well. Then the assay plate was incubated for 10 min at room temperature. (7) Diluted compound solution was dispensed to each well in the compound plate, and mixed with built-in Pipette and Mixer of the Fluorescence analysis system FLIPR TETRA (Molecular devices). (8) After incubation for 5 min, 20 μL of 4α-PDD solution were applied to each well of assay plate and mixed with the FLIPR TETRA. (final 1 Î¼mol/L 4α-PDD). (9) The fluorescent intensity was measured with FLIPR TETRA system for 10 min from the point of time addition the compound solution, at Ex 470-495 nm, Em 515-575 nm wavelength. The assay is classed as cell-based.
Transient receptor potential cation channel subfamily V member 4, sequence (Q9HBA0 whole entry): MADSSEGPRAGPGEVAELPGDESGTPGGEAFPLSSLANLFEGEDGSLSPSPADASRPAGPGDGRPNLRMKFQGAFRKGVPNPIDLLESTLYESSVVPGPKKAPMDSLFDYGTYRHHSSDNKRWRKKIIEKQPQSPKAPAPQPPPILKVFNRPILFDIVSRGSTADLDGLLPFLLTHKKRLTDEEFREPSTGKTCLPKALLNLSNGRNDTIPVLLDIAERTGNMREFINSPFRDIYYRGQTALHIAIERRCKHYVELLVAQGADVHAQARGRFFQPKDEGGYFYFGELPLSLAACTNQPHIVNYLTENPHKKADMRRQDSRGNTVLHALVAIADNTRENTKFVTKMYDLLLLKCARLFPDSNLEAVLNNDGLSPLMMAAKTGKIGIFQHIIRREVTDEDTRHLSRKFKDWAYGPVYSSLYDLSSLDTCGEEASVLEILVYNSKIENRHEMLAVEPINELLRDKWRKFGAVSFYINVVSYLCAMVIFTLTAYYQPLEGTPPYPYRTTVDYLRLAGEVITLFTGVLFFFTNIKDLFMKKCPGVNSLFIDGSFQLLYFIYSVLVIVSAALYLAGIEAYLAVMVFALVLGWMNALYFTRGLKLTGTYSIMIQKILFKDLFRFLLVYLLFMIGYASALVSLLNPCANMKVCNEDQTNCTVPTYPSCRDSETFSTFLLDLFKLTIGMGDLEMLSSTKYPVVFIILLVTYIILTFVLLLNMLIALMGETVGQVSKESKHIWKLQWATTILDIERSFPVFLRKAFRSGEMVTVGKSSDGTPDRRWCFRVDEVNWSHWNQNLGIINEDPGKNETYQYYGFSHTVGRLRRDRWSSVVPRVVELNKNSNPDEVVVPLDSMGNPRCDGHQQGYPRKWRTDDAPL
The IC50 is the midpoint of a concentration-inhibition curve. Usually Ki stands for a measure of affinity in units of concentration, obtained from inhibition or displacement. Consider `Cc1c(S(=O)(=O)NCc2cccc(C(F)(F)F)c2)cc(C(C)(C)C)n1CCCN1CCNCC1`, for which the IC50 was 8900 nM and the Ki is 3100 nM.
In the same order, the values of `Cc1c(C(=O)Nc2cccc(C(F)(F)F)c2)nc(-c2ccccc2)n1CCCN1CCOCC1` are 710 nM and 320 nM.
In the case of `CNCCCn1c(C(C)(C)C)cc(S(=O)(=O)NCc2cccc(C(F)(F)F)c2)c1C`, the concentration for half-maximal inhibition (IC50) stood at 7000 nM and the inhibition constant Ki is 2400 nM.
